Results reported in US20240240155A1, “Organoid-Derived Monolayers and Uses Thereof” (Hub Organoids IP B.V., priority 2021, published 2024).

Legend:
[1] = target: T1, OCT2 (Homo sapiens, UniProt O15244); assay: Rhodamine transport assay, kidney-C monolayers; type: cell-based; conditions: 1 μM, 30 mins; day 7
T1 construct: endogenous in cells; host or cells: human kidney organoid-derived monolayer (donor kidney-C)
T1 sequence (O15244 1-555): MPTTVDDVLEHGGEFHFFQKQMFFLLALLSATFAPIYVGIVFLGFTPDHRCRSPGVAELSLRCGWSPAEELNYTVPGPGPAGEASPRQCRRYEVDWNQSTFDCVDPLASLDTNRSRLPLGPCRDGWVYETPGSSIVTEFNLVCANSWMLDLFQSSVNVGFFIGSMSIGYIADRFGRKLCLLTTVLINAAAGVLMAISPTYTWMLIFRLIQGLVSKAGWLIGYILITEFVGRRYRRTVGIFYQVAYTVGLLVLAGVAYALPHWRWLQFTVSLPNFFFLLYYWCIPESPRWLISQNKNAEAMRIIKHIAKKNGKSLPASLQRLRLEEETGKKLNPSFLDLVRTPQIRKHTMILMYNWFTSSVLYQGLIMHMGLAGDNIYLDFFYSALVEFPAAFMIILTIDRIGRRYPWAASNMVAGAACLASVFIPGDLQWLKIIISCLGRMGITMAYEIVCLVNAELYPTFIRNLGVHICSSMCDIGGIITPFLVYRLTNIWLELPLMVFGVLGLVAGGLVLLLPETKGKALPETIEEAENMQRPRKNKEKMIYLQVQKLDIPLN
Protocol: FIG. 28 illustrates fluorescence measurements for accumulated intracellular Rhodamine 123 for kidney-C cultures grown in KEM media, with or without addition of 1 uM decitabine (DAC) on day 2 after seeding, in the presence or absence of PSC833 (a specific P-gp inhibitor) and decynium-22 (a specific OCT2 inhibitor). A sample incubated with PBS only (without […]) was used as a negative control. RFU, relative fluorescence units.
Rhodamine transport from the basolateral compartment into kidney monolayers grown in either the KEM or DAC conditions as described in Example 9 was measured on day 7 after seeding in the presence or absence of the P-gp inhibitor PSC-833 and/or OCT2 inhibitor Decynium-22 as follows: • 1. Remove media and rinse cells using PBS. • 2. Add fresh buffer under one of the following conditions (37° C.): • 1. 1 μM Decynium-22, 30 mins, • 2. 1 μM PSC-833, 30 mins, • 3. 1 μM Decynium-22 and 1 μM PSC-833, 30 mins, or • 4. Untreated Control, 30 mins. • 3. Add Rhodamine 123 at a final concentration 250 nM to the basolateral compartment and incubate for 30 minutes at 37° C. • 4. Analyse cellular accumulation of Rhodamine 123 using fluorescence (Excitation λ 490 nm, Emission λ 520 nm). • 5. Assess accumulation differences.

[2] = test system: Human gastro-intestinal tract organoid-derived monolayers; assay: Polarisation assay: TEER and Lucifer yellow permeability after apical or basolateral treatment; type: cell-based; conditions: eCDM; apical, basolateral or both compartments; day 3 after seeding
[3] = target: T2, P-gp (Homo sapiens, UniProt P08183); assay: Calcein transport assay, pulse-chase format, lung-C monolayers; type: cell-based; conditions: T=2 hours
T2 construct: endogenous in cells; host or cells: human lung organoid-derived monolayer (donor lung-C)
T2 sequence (P08183 whole entry): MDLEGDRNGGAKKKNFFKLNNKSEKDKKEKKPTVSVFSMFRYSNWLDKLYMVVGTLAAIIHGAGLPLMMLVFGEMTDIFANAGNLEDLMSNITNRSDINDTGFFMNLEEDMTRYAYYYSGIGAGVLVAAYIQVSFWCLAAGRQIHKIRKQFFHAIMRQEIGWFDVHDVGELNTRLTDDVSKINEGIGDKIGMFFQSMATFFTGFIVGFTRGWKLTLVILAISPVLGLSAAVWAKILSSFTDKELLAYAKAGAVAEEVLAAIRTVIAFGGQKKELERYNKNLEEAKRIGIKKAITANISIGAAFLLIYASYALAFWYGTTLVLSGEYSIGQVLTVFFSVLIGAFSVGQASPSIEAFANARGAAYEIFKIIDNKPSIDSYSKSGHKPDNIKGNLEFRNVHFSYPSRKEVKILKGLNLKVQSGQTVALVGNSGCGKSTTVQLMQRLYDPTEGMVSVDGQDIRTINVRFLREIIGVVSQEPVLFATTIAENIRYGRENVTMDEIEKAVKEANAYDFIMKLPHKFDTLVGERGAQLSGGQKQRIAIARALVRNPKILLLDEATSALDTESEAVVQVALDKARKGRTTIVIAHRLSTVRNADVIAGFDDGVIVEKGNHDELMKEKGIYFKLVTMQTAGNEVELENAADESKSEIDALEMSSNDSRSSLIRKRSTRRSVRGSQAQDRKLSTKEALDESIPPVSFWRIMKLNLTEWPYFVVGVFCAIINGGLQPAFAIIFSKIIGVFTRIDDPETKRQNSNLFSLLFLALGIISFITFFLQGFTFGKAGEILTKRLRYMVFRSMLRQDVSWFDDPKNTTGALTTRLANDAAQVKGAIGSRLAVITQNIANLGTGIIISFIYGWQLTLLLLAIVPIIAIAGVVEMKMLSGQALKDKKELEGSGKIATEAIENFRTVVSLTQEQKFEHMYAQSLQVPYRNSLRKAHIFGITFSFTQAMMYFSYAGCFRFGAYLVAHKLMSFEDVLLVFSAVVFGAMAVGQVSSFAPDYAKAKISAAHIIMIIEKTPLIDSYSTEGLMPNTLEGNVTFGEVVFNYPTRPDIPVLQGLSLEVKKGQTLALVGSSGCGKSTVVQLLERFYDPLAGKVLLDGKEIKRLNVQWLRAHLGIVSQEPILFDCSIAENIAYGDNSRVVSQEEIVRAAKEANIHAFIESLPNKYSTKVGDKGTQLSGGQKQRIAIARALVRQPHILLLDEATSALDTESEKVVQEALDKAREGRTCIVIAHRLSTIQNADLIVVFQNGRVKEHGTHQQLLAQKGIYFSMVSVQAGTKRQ

[4] = target: T2, P-gp; assay: Rhodamine transport assay, kidney-C monolayers; type: cell-based; conditions: 1 μM, 30 mins; day 7
[5] = target: T2, P-gp; assay: Calcein transport assay, kidney-C monolayers; type: cell-based; conditions: 1 μM, 30 mins; KEM or DAC conditions, day 7
[6] = target: T2, P-gp; assay: Calcein transport assay, accumulation format, lung-C monolayers; type: cell-based; conditions: 1 μM, 30 mins; LuM LLI and LuM ALI
[7] = test system: IBD-PDO ileum epithelium monolayers; assay: Barrier function assay in IBD-PDO monolayers, LY permeability; type: cell-based, human; conditions: 0.1, 2 and 10 μM pre-treatment
[8] = test system: normal ileum-derived organoid epithelium monolayers; assay: Cytokine-induced barrier injury with tofacitinib pre-treatment, TEER; type: cell-based, human
Protocol: (§1) (A) Transepithelial electrical resistance (TEER). (B) Relative TEER values from the same Transwell before treatment after 5 and 24 hours. (C) Permeability and (D) Cell viability of the same Transwell after 24 hours in response to treatments. Data are represented as mean±SD for 3 technical replicates. An unpaired t-test was performed on permeability and cell viability data. A one-way ANOVA (Dunett's multiple comparisons test) was done on normalized TEER, permeability and cell viability data. *P<0.05, **P<0.01, ***P<0.001.
The experimental condition above were reproduced by repeating the same experiment with same normal colon-derived epithelium monolayer and extended to normal ileum-derived organoid epithelium monolayers from the same donor, as in the previous experiment.
To address IFN-γ specificity in inducing barrier injury, TNF-α/IL-1α combination (data not shown) was included in addition to IFN-γ/TNF-α/IL-1α and IFN-γ/TNF-α.

[9] = test system: normal colon-derived epithelium monolayers; assay: Cytokine-induced barrier injury with tofacitinib pre-treatment, Lucifer Yellow permeability assay; type: cell-based, human
[10] = test system: normal ileum-derived organoid epithelium monolayers; assay: Cytokine-induced barrier injury with tofacitinib pre-treatment, LY permeability; type: cell-based, human; conditions: 10 μM tofacitinib, IFN-γ containing cytokine cocktails
[11] = test system: IBD-PDO derived distal colon epithelium monolayers; assay: Barrier function assay in IBD-PDO monolayers, TEER; type: cell-based, human; conditions: highest tofacitinib concentration
Protocol: (A-C) Transepithelial electrical resistance (TEER). (D-F) relative TEER value from the same Transwell before treatment after 5 and 24 hours. (G-I) Permeability and (J-L) cell viability of the same Transwell after 24 hours in response to treatments. Data represented as mean±SD for 3 technical replicates. A two-way ANOVA (Dunett's multiple comparisons test) was done on normalized TEER, all conditions were compared to the pre-treatment conditions. For permeability and cell viability data a one-way ANOVA (Dunett's multiple comparisons test) was used. ****P<0.0001; ***P<0.001; **P<0.01; *P<0.1; ns, not significant.
(§2) IBD patient-derived organoid (IBD-PDO) monolayer cultures from ileum, proximal and distal colon were established following the same protocols used in previous experiments. […] Their barrier integrity was measured at 5 and 24 hours followed by LY permeability and cell viability performed (FIGS. 10, 11).

[12] = test system: IBD-PDO derived distal colon epithelium monolayers; assay: Barrier function assay in IBD-PDO monolayers, cell viability; type: cell-based, human; conditions: 0.1, 2 and 10 μM pre-treatment
[13] = test system: IBD-PDO proximal colon epithelium monolayers; assay: Barrier function assay in IBD-PDO monolayers, TEER; type: cell-based, human; conditions: after 24 hours
Protocol: as §2

[14] = test system: IBD-PDO derived distal colon epithelium monolayers; assay: Barrier function assay in IBD-PDO monolayers, LY permeability; type: cell-based, human; conditions: 0.1, 2 and 10 μM pre-treatment
[15] = test system: IBD-PDO ileum epithelium monolayers; assay: Barrier function assay in IBD-PDO monolayers, TEER; type: cell-based, human; conditions: 0.1, 2 and 10 μM pre-treatment
Protocol: (A) Transepithelial electrical resistance (TEER). (B) relative TEER value from the same transwell before treatment after 5 and 24 hours. (C) Permeability and (D) cell viability of the same Transwell after 24 hours in response to treatments. Data represented as mean±SD for 3 technical replicates. A two-way ANOVA (Dunett's multiple comparisons test) was done on normalized TEER, all conditions were compared to the pre-treatment conditions. For permeability and cell viability data a one-way ANOVA (Dunett's multiple comparisons test) was used. ****P<0.0001; ***P<0.001; **P<0.01; *P<0.1; ns, not significant.
as §2

[16] = test system: IBD-PDO ileum epithelium monolayers; assay: Barrier function assay in IBD-PDO monolayers, cell viability; type: cell-based, human; conditions: 0.1, 2 and 10 μM pre-treatment
[17] = test system: normal colon-derived epithelium monolayers; assay: Cytokine-induced barrier injury with tofacitinib pre-treatment, TEER; type: cell-based, human
Protocol: (A) Transepithelial electrical resistance (TEER). (B) relative TEER value from the same Transwell before treatment after 5 and 24 hours. (C) Permeability and (D) Cell viability of the same Transwell after 24 hours in response to treatments. […] (E) TEER (top), permeability (middle) and cell viability (bottom) dose response curves. EC50 values were calculated by Non-linear regression log(inhibitor) versus response variable slope (four parameters) of three technical replicates.
as §1, with “Data are represented as mean±SD for 3 technical replicates.” left out
At this point, the culture medium was changed to cCDM until epithelium monolayer barrier integrity further increased (TEER >1000 Ω·cm^2). […] These measurements were normalized to the TEER value of the same Transwell before measurement, to correct for well-to-well TEER variability (FIG. 7B). Paracellular permeability was measured by the Lucifer Yellow (LY) permeability assay after 24 hours (FIG. 7C). Subsequently, monolayer cell viability was measured by the ATP Luminescent Assay, CellTiter-Glo 3D, to monitor for loss of barrier function due to cell death, as opposed to increased paracellular permeability. […] (FIG. 7D).

[18] = test system: normal colon-derived epithelium monolayers; type: cell-based, human; conditions: cytokine-treated colon monolayers

CCN1/C(=C/c2ccc3ccccc3[n+]2CC)C=Cc2ccccc21.[I-] [Decynium-22]
cellular accumulation of Rhodamine [1]: decreased accumulation

COc1cc2ncnc(Nc3ccc(F)c(Cl)c3)c2cc1OCCCN1CCOCC1 [Gefitinib]
integrity of organoid-derived epithelial monolayers (TEER, Lucifer yellow permeability) [2]: compromised only when Gefitinib is added to the basolateral compartment

C/C=C/C[C@@H](C)C(=O)[C@H]1C(=O)N[C@@H](C(C)C)C(=O)N(C)CC(=O)N(C)[C@@H](CC(C)C)C(=O)N[C@@H](C(C)C)C(=O)N(C)[C@@H](CC(C)C)C(=O)N[C@@H](C)C(=O)N[C@H](C)C(=O)N(C)[C@@H](CC(C)C)C(=O)N(C)[C@@H](CC(C)C)C(=O)N(C)[C@@H](C(C)C)C(=O)N1C [PSC833]
Calcein AM accumulation or efflux [3]: did not show notable effects on Calcein AM accumulation or efflux
cellular accumulation of Rhodamine [4]: Increased cellular accumulation of Rhodamine
cellular accumulation of Calcein AM [5]: Increased cellular accumulation of Calcein AM
cellular accumulation of Calcein AM [6]: Increased cellular accumulation of Calcein AM

C[C@@H]1CCN(C(=O)CC#N)C[C@@H]1N(C)c1ncnc2[nH]ccc12 [tofacitinib]
inhibition of cytokine-compromised LY permeability [7]: inhibited by tofacitinib in a dose responsive manner
tofacitinib pre-treatment concentration that protected monolayers [8]: 10 µM
EC50 ([9]; Homo sapiens, read-out: Permeability (EC50 of tofacitinib dose response, FIG. 7E), IFN-γ/TNF-α/IL-1α 1 ng/mL): 316 nM
concentration at which apparent permeability of LY was reduced ([9]; cytokine-treated colon monolayers): above 3 μM
LY permeability after pre-treatment [10]: became impermeable again
effect on TNF-α/IL-1α reduced barrier function integrity [11]: not inhibited or restored with highest tofacitinib concentration
inhibition of induced damage (TEER) ([11]; 5 hours): not completely inhibited even with highest tofacitinib concentration
restoration of induced damage (TEER) ([11]; 24 hours): restored after 24 hours
inhibition of cytokine-compromised cell viability [12]: inhibited by tofacitinib in a dose responsive manner
pre-treatment concentration with which barrier integrity damage was completely restored [13]: higher than 0.1 μM
inhibition of cytokine-compromised LY permeability [14]: inhibited by tofacitinib in a dose responsive manner
inhibition of IFN-γ/TNF-α/IL-1α and IFN-γ/TNF-α barrier injury (TEER) [15]: inhibited by tofacitinib pre-treatment in a dose response manner
inhibition of cytokine-compromised cell viability [16]: inhibited by tofacitinib in a dose responsive manner
pre-treatment concentration that maintained barrier function integrity ([17]; both cytokine combinations, TEER): above 3 μM
tofacitinib pre-treatment concentration that protected monolayers ([17]; colon): 2 µM
inhibition of TNF-α/IL-1α induced barrier function injury ([17]; highest tofacitinib concentration used): not inhibited by highest tofacitinib concentration used
protection from cytokine induced barrier injury ([17]; tofacitinib 0.1 μM pre-treatment): partially protected
protection from cytokine induced barrier injury ([17]; tofacitinib 2 μM pre-treatment): completely
pre-treatment concentration that prevented cytokine induced cell death [18]: above 3 μM
